Source: patent publication US20250186470A1, “Compositions and Methods Using Lactulose for Treating Disease” (THE UNIVERSITY OF CHICAGO, priority 2023, published 2025)

Experiments:
Bifidobacteria = assay: Fecal shotgun metagenomics of hospitalized liver disease patients stratified by lactulose exposure: Bifidobacteria abundance; type: in vivo, human; details: for Regression estimate, association with Bifidobacteria abundance: Table S1, factors lactulose, PPI, stool consistency, antibiotics
[1] = test system: VRE (vancomycin resistant Enterococcus faecium, ATCC 700221); assay: VRE growth curves in B. longum conditioned media, SCFA- or lactulose-supplemented media; type: cell-based; details: 50 mM lactulose in media
Description: FIGS. 11A-11F: Bifidobacterium longum supernatant inhibits VRE growth in vitro. (A) Schematic of experimental design for VRE growth in B. longum conditioned media (CM). B. longum was grown in BHIS for 24-hours prior to collecting and filtering the supernatant. VRE growing at steady state was then diluted to a low density (OD600=0.05) prior to inoculating in various dilutions of B. longum conditioned media in fresh BHIS. (B) VRE growth curves in 100%, 50%, 12.5%, and 0% CM with the pH of the 4 concentrations of CM in BHIS shown in the right portion of this panel. […] (E) VRE was grown in minimal media containing either no additive (blue) or 50 mM lactulose, and OD600 was measured over time. (F) VRE was grown in BHIS with or without 50 mM lactulose, and OD600 was measured over time. […]
The Bifidobacteria longum strains MSK.11.12 and DFI.2.45 were previously derived from two distinct healthy donor stool samples and whole genome sequenced (BioSample ID: SAMN19731851 and SAMN22167409). […] All growth curves were obtained in anaerobic culture conditions at 37° C. on a BioTek EPOCH2 microplate reader with BioTek Gen 5 3.11 software. Growth curves were analyzed in GraphPad Prism Version 9.4.0. Lactulose concentrations in were measured using the EnzyChrom™ Lactulose Assay Kit (ELTL-100).

[2] = 90-day survival of liver disease patients, Kaplan-Meier and Cox proportional hazards; type: in vivo, human; details: Table S10, covariate Lactulose, Bifido >10%, model also has MELD-Na, age and sex at enrollment
Description: FIGS. 5A-5H: Bifidobacteria expansion and associated metabolite production are associated with decreased incidence of systemic infection and prolonged survival. (A) A Linear discriminant analysis effect size (LEfSe) showing the significant (Wilcoxon rank-sum, two-tailed, p≤0.05) effect sizes of taxa between groups. (B) Acetate (mM) and taurocholic acid (μg/mL) were quantified, and (C) conversion from conjugated-primary BA to primary BA and then to secondary BAs was tested for each sample. Each point represents a molar ratio for an individual sample. (A-C) Sample size: n=101 (no SBP), n=21 (SBP)). (D) LEfSe showing the significant (Wilcoxon rank-sum, two-tailed, p≤0.05) effect sizes of taxa between groups. (E) Acetate (mM) and taurocholic acid (μg/mL) were quantified, and (F) conversion from conjugated-primary BA to primary BA and then to secondary BAs was tested for each sample. Each point represents a molar ratio for an individual sample. (D-F) Sample size: n=227 (no bacteremia), n=19 (bacteremia)). (B,C,E, and F) Each point represents a single sample. Median and interquartile range are indicated by the horizontal line and box, respectively. The lower vertical line depicts Q1-1.5*IQR and the upper vertical line depicts Q3+1.5*IQR. Statistical comparisons between individual groups were analyzed using a two-tailed Wilcoxon rank sum test. […]

[3] = lactulose treated patients, one sample per patient

SMILES: OC[C@H]1O[C@@H](O[C@@H]2[C@@H](CO)OC(O)(CO)[C@H]2O)[C@H](O)[C@@H](O)[C@H]1O (mixture of isomers) [Lactulose, lactulose]
- Regression estimate, association with Bifidobacteria abundance (Bifidobacteria): 0.17
- Regression estimate, association with Bifidobacteria abundance (Bifidobacteria; listed as lactulose): positively associates
- Bifidobacteria abundance, mean (Bifidobacteria; [3]): 22.2%
- Bifidobacteria abundance, range (Bifidobacteria; [3]): 0.0-94.7%
- Fecal samples having ≥10% Bifidobacteria abundance (Bifidobacteria; lactulose within 7 days prior to sample collection, one sample per patient): 45.2%
- Bifidobacteria density (Bifidobacteria; patients without antibiotics in the preceding 7 days, lactulose-treated vs not): significantly increased
- VRE growth [1]: modestly augments
- Estimate (Cox proportional hazards coefficient) [2]: −0.87
- Exp (coef) [2]: 0.42
